This passage reports MIC results from patent EP0561850B1, “7-SUBSTITUTED-6-FLUORO-1,4-DIHYDRO-4-OXO-QUINOLINE-3-CARBOXYLIC ACID COMPOUNDS USEFUL AS ANTIBACTERIAL AGENTS” (priority 1990, dated 1992).

In brackets after ≈: the same amount, converted by molar mass. Like-named read-outs stand apart in the source and are kept apart here.

Assay [1] has as its system Pseudomonas aeruginosa S-67. Kind of assay: Microbroth dilution (MHB) method, NCCLS M7-A2. Type of assay: cell-based. The following applies: Pseudomonas aeruginosa, S67. The protocol: (§1) The test organisms were obtained from ATCC and clinical laboratories. The 96-well microtitre plates containing […] of serially diluted test compounds in Mueller Hinton Broth (MHB) (conc. range 64-0.03 µg/ml) were inoculated with […] of bacterial suspension in MHB so that an inoculum size of 5 x 10^5 cfu/ml was achieved.
(§2) EC. (S- 63): Eschericia coli Ecl. (S- 130): Enterobacter cloacae Pa. (S- 67): Pseudomonas aeruginosa Kp. (S- 80): Klebsiella pneumoniae Pr.
(§3) Microbroth Dilution (MHB) method; Inoculum, 5 x 10^5 cfu/ml; Incubation 35 °C/18 hr
For orientation: In broth dilution the organism is exposed to a series of concentrations in liquid medium.

Assay [2] concerns Klebsiella pneumoniae S-80. Kind of assay: Microbroth dilution (MHB) method, NCCLS M7-A2. Particulars: Klebsiella pneumoniae, S80. Type of assay: cell-based. The protocol: as §1, §2, §3
The test system of another assay is Eschericia coli S-63. Kind of assay: Microbroth dilution (MHB) method, NCCLS M7-A2. Type of assay: cell-based. The following applies: Ec S-63, inoculum 5 x 10^5 cfu/ml, 35 °C/18 hr, read-out: MIC. How it is done:
as §1, §2, §3

In assay [3] the test system is Providencia rettgeri S-121. Briefly: Microbroth dilution (MHB) method, NCCLS M7-A2. The following applies: Providencia rettgeri, S121, Pr S-121, inoculum 5 x 10^5 cfu/ml, 35 °C/18 hr, read-out: MIC. Type of assay: cell-based. How it is done: as §1, §2, §3
Assay [4] relates to Propionobacterium acne AN-17. Briefly: In vitro antimicrobial activity against anaerobes, broth microdilution. Type of assay: cell-based. An excerpt: (§4) The compounds of the invention display antibacterial activity when tested by the broth microdilution method as described in the NCCLS publications M7-A, M11-A and M17-P of the year 1985. For aerobic microorganisms, a cation supplemented Mueller Hinton Broth (BBL) was used whereas the Anaerobe Broth MIC (Difco) was used for anaerobic microorganisms. An agar Dilution method was employed for certain aerobic microorganisms using Mueller Hinton II Agar (BBL) and a Cathra multipoint inoculating device which delivered 10^4 cfu/spot of the inoculum on the agar surface. MICs were read after 16-18 hours and 48 hours of incubation in case of microbes growing aerobically and anaerobically respectively.
(§5) By use of the above method, the following minimum inhibitory concentration values (MICs in µg/ml) were obtained: Table 1, against microbes growing aerobically; Table 2, against microbes growing anaerobically; Table 3, against methicillin resistant Staphylococcus aureus and quinoline resistant-methicillin resistant Staphylococcus aureus.

For the next assay, the system named is Bacteroides fagilis AN-2. Described as above. Type of assay: cell-based.
From the text: as §4, §5

Assay [5] concerns Peptostreptococcus asaccharolyticus AN-16. The description is as above. In kind it is cell-based. Particulars: Peptoniphilus asaccharolyticus.
From the text: as §4, §5

Assay [6] concerns Streptococcus intermedius AN-19. Described as above. In kind it is cell-based.
From the text: as §4, §5

The test system of assay [7] is Fusobacterium mortiferum AN-13. The assay is described as above. In kind it is cell-based.
From the text: as §4, §5

The next assay concerns Sa 127M. Briefly: Microbroth dilution (MHB) method, NCCLS M7-A2. In kind it is cell-based, Staphylococcus aureus. Particulars: Staphylococcus aureus, inoculum 5 x 10^5 cfu/ml, 35 °C/18 hr, read-out: MIC. How it is done:
as §1, §2, §3

For assay [8], the system named is Methicillin Resistant S. aureus (MRSAs). Briefly: In vitro antimicrobial activity against methicillin resistant S. aureus. Type of assay: cell-based. The following applies: Staphylococcus aureus; MRSA (6 C.I.), C.I. = Clinical Isolates. The protocol: (§6) For aerobic microorganisms, a cation supplemented Mueller Hinton Broth (BBL) was used whereas the Anaerobe Broth MIC (Difco) was used for anaerobic microorganisms. An agar Dilution method was employed for certain aerobic microorganisms using Mueller Hinton II Agar (BBL) and a Cathra multipoint inoculating device which delivered 10^4 cfu/spot of the inoculum on the agar surface. MICs were read after 16-18 hours and 48 hours of incubation in case of microbes growing aerobically and anaerobically respectively.

In assay [9] the test system is Quinoline Resistant MRSAs (QRMRSAs). Briefly: In vitro antimicrobial activity against quinoline resistant MRSA. The following applies: Staphylococcus aureus; QRMRSA (8 C.I.), C.I. = Clinical Isolates. In kind it is cell-based. How it is done:
as §6

In assay [10] the test system is Staphylococcus aureus S-127. Briefly: In vitro antimicrobial activity against aerobes, broth microdilution (NCCLS 1985). In kind it is cell-based. Particulars: S127, read after 16-18 hours. The protocol: as §6
[11] abbreviates: Propionobacterium acne AN-17, anaerobes, read after 48 hours, read-out: MIC.
Setting [12] is: AN2, Bacteroides fagilis AN-2, anaerobes, read after 48 hours, read-out: MIC.
Where [13] appears, read: AN16, Peptostreptococcus asaccharolyticus AN-16, anaerobes, read after 48 hours, read-out: MIC.
Where [14] appears, read: AN19, Streptococcus intermedius AN-19, anaerobes, read after 48 hours, read-out: MIC.
The mark [15] stands for this setting: AN13, Fusobacterium mortiferum AN-13, anaerobes, read after 48 hours, read-out: MIC.

As usually defined, the MIC is the least concentration at which growth counts as inhibited. For `O=C(O)c1cn(C2CC2)c2cc(N3CCNCC3)c(F)cc2c1=O` [Ciprofloxacin, reference compound], the MIC is 0.25 µg/mL (≈ 0.754 µM) in assay [1]; 0.015 µg/mL (≈ 0.0453 µM) in assay [2]; ≤ 0.008 µg/mL in the assay on Eschericia coli S-63; 0.015 µg/mL (≈ 0.0453 µM) in assay [3]; 0.5 µg/mL (≈ 1.51 µM) in assay [4] (48 h); 16 µg/mL (≈ 48.3 µM) against Bacteroides fagilis AN-2 (Bacteroides, AN2, 48 h). In addition, the MIC in assay [5] (AN16, 48 h) is 4 µg/mL (≈ 12.1 µM); in [6] (Streptococcus intermedius, AN19, 48 h) it was 1 µg/mL (≈ 3.02 µM); in assay [7] (Fusobacterium mortiferum, AN13, 48 h) it was 16 µg/mL (≈ 48.3 µM); with Sa 127M, 8 µg/mL (≈ 24.1 µM).

With `Nc1c(F)c(N2CCC(n3ccnn3)C2)c(F)c2c1c(=O)c(C(=O)O)cn2C1CC1` (centres unmarked) [Example 11, 5-Amino-1-cyclopropyl-6,8-difluoro-7-[3-(1,2,3-triazol-1-yl)-pyrrolidin-1-yl]-1,4-dihydro-4-oxo-quinoline-3-carboxylic acid], the MIC in assay [4] (setting [11]) was ≤ 0.03 µg/mL; in the assay with Bacteroides fagilis AN-2 (setting [12]) it was 1 µg/mL (≈ 2.4 µM); in assay [5] (setting [13]), 0.06 µg/mL (≈ 0.144 µM); in [6] (setting [14]), 0.06 µg/mL (≈ 0.144 µM); in assay [7] (setting [15]), 0.06 µg/mL (≈ 0.144 µM); in assay [8] it was 0.004 to 0.008 µg/mL (≈ 0.00961 to 0.0192 µM). Further, in assay [9], the MIC lay within 0.5 to 2 µg/mL (≈ 1.2 to 4.8 µM).

For the compound `Nc1c(F)c(N2CC[C@H](n3ccnn3)C2)c(F)c2c1c(=O)c(C(=O)O)cn2C1CC1` [Example 12, 5-Amino-1-cyclopropyl-6,8-difluoro-7-[3S-(1,2,3-triazol-1-yl)-pyrrolidin-1-yl]-1,4-dihydro-4-oxo-quinoline-3-carboxylic acid], the MIC was 0.06 µg/mL (≈ 0.144 µM) in [4] (setting [11]); 1 µg/mL (≈ 2.4 µM) in the assay on Bacteroides fagilis AN-2 (setting [12]); 0.06 µg/mL (≈ 0.144 µM) in assay [5] (setting [13]); 0.12 µg/mL (≈ 0.288 µM) in assay [6] (setting [14]); 0.06 µg/mL (≈ 0.144 µM) in assay [7] (setting [15]); 0.004 to 0.008 µg/mL (≈ 0.00961 to 0.0192 µM) in assay [8]. Moreover, the results for the MIC in assay [10] and in assay [9] were 0.008 µg/mL (≈ 0.0192 µM) and 0.5 to 2 µg/mL (≈ 1.2 to 4.8 µM), respectively.

Regarding `Nc1c(F)c(N2CCC(n3ccnn3)C2)c(F)c2c1c(=O)c(C(=O)O)cn2-c1ccc(F)cc1F` (centres unmarked) [Example 14, 5-Amino-1-(2,4-difluorophenyl)-6,8-difluoro-7-[3-(1,2,3-triazol-1-yl)pyrrolidin-1-yl]-1,4-dihydro-4-oxo-quinoline-3 carboxylic acid], the MIC was 0.06 µg/mL (≈ 0.123 µM) in assay [4] (setting [11]); > 64 µg/mL in the assay with Bacteroides fagilis AN-2 (setting [12]); 0.12 µg/mL (≈ 0.246 µM) in [5] (setting [13]); 0.06 µg/mL (≈ 0.123 µM) in assay [6] (setting [14]); 2 µg/mL (≈ 4.09 µM) in assay [7] (setting [15]); 0.008 to 0.03 µg/mL (≈ 0.0164 to 0.0614 µM) in [8]. The MIC in [10] is ≤ 0.015 µg/mL; in assay [9] it was 1 to 8 µg/mL (≈ 2.05 to 16.4 µM).

Turning to `C[C@@H]1CN(c2c(F)c(N)c3c(=O)c(C(=O)O)cn(C4CC4)c3c2F)C[C@H](C)N1` [Sparfloxacin, reference compound], the MIC in [4] (setting [11]) is 1 µg/mL (≈ 2.55 µM); in the assay with Bacteroides fagilis AN-2 (setting [12]), 2 µg/mL (≈ 5.1 µM); in [5] (setting [13]), 4 µg/mL (≈ 10.2 µM); in assay [6] (setting [14]), 0.5 µg/mL (≈ 1.27 µM); in assay [7] (setting [15]), 0.5 µg/mL (≈ 1.27 µM); in [8], 0.03 to 0.12 µg/mL (≈ 0.0765 to 0.306 µM). In addition, the MIC in assay [10] is 0.06 µg/mL (≈ 0.153 µM); in assay [9], 4 to 16 µg/mL (≈ 10.2 to 40.8 µM).
